Data from patent US7183291B2 (Council of Scientific and Industrial Research, priority 1999, dated 2007).
“And” between values parts separate entries of the source, which are not always exact repeats. Equal values may be shown once.

Experiments:
[1] = tested on: P. cynomolgi B gametocytes; assay: Gametocytocidal test: infectivity of gametocytes from treated P. cynomolgi infected Rhesus monkeys to An. stephensi mosquitoes; format: in vivo
Method: For the gametocytocidal test, batches of 3–4 day old An. Stephensi were allowed to feed on P. cynomolgi infected Rhesus monkeys at appropriate gametocytaemia level. […] […] Mosquitoes were maintained as 26±1° C. under optimal insectary conditions. The infectivity rate and the oocyst counts were recorded on day 8. Mosquitoes were further maintained in the insectary to record the formation of sporozoites and the absence of sporozoites in some of the batches was also ensured by inoculation of mosquito homogenates into native monkeys.

[2] = Methaemoglobin levels in Beagle dogs after 7-day oral treatment
Method: Colony bred beagle dogs were maintained in the kennel house of the Institute and fed with a standard diet.
Treatment was administered once daily for seven doses (day 0–6), the day of the first dose being day 0. […] 5 ml. blood was collected from beagle dogs on day 0, 3, 7, 13 and 25 using potassium-oxalate crystals as anticoagulant. All the estimations/tests were conducted on the same day of collection of blood. Methaemoglobin was assayed by the method of Evelyn and Malloy (1938, J. Biol. Chem., 126, 655–662).

[3] = oral labelled primaquine; cited from earlier work
[4] = tested on: rodent malaria; conditions: in vivo; cited from earlier work
[5] = tested on: normal erythrocytes; assay: Reduced glutathione (GSH) in normal human erythrocytes after 3 h incubation; format: cell-based
Source text: (§1) Drug induced haemolysis is a serious complication in persons deficient in G-6-PD enzyme. The presence of reduced glutathione (GSH) in erythrocytes control the level of oxidative metabolites. Therefore, drugs, which cause lesser oxidation of GSH level are safe. […] G-6-PD deficiency was detected by the fluorescent spot screening test and confirmed by the enzyme assay method. Heparinised blood samples were collected from each individual and after centrifugation, the packed cells were washed three times with cold saline. […] GSH levels were estimated by the method of Bentler et al [Improved Method for the Determination of Blood Glutathione, J. Lab.

[6] = tested on: rodent malaria; conditions: in vivo; cited from earlier work; remark: listed apart in the source
[7] = tested on: G-6-PD deficient erythrocytes; assay: Reduced glutathione (GSH) in G-6-PD deficient human erythrocytes after 3 h incubation; format: cell-based; conditions: 25 and 50 μg/ml of PQ and equivalent doses, P<0.001
Source text: as §1

[8] = tested on: rodent malaria; conditions: given directly to the insect; cited from earlier work
[9] = 1.00 mg/kg at 0 hr, feeding +24 hr
[10] = 1.00 mg/kg at 0 hr, feeding +48 hr
[11] = 1.00 mg/kg at 0 hr, feeding −1 hr (pre-treatment)
[12] = 3.16 mg/kg at 0 hr, feeding +24 hr
[13] = 3.16 mg/kg at 0 hr, feeding −1 hr (pre-treatment)

SMILES: COc1cc(NC(C)CCCN)c2ncccc2c1 (stereo not drawn) [Primaquine, 8-(4-amino-1-methylbutylamino)-6-methoxy quinoline, reference compound]
- loss of infectivity ([1]; 1.00 mg/kg): ~98%
- No. of mosquitoes infected/dissected ([1]; 1.00 mg/kg at 0 hr, feeding +5 hr): 32/44 and 36/46
- No. of mosquitoes infected/dissected [1, 9]: 0/55 and 3/45
- Parasitaemia/mm^3 Asexual [1, 9]: 28048 /mm^3 and 26832 /mm^3
- % infectivity [1, 10]: (0) %
- No. of mosquitoes infected/dissected [1, 10]: 0/40
- Parasitaemia/mm^3 Asexual [1, 10]: 15332 /mm^3 and 12140 /mm^3
- oocyst no. per gut (Mean ± SD) [1, 10]: Nil
- No. of mosquitoes infected/dissected [1, 11]: 25/34 and 32/40
- Parasitaemia/mm^3 Asexual [1, 11]: 42394 /mm^3 and 36166 /mm^3
- No. of mosquitoes infected/dissected ([1]; 3.16 mg/kg at 0 hr, feeding +5 hr): 0/53 and 15/46
- % infectivity [1, 12]: (0) %
- No. of mosquitoes infected/dissected [1, 12]: 0/33 and 0/43
- Parasitaemia/mm^3 Asexual [1, 12]: 23112 /mm^3 and 21204 /mm^3
- Parasitaemia/mm^3 Gametocytes [1, 12]: 749 /mm^3 and 670 /mm^3
- oocyst no. per gut (Mean ± SD) [1, 12]: Nil
- No. of mosquitoes infected/dissected [1, 13]: 37/51 and 20/47
- Parasitaemia/mm^3 Asexual [1, 13]: 29680 /mm^3 and 16824 /mm^3
- Parasitaemia/mm^3 Gametocytes [1, 13]: 1230 /mm^3 and 1026 /mm^3
- gametocytocidal action ([1]; 3.16 mg/kg, +24 hr): complete gametocytocidal action
- increase of mean Met-Hb values over day 0 ([2]; Group I, 1.0 mg/kg, day 7): 3.7 fold
- increase of Met-Hb over corresponding day 0 value ([2]; Group II, 3.0 mg/kg): 10.5 fold
- radioactivity found in liver tissue [3]: 45%
- gametocytocidal activity [4]: very potent gametocytocidal agent
- concentration at which fall in GSH levels reached statistical significance [5]: 10000 ng/mL
- GSH (mg %) Mean ± SE ([5]; dose 1.00 μg/ml): 43.50 ± 5.70 mg %
- GSH (mg %) Mean ± SE ([5]; dose 5.00 μg/ml): 39.00 ± 6.16 mg %
- blood schizontocidal activity [6]: has blood schizontocidal activities
- decrease in GSH level compared to controls [7]: statistically significant
- direct sporontocidal activity [8]: quite inactive
